Experimental data reported in DBAASP.
Values after ≈ are worked out from the molar mass of the structure shown. Each block holds one compound with its values, some of them ahead of it.

What was measured:
Test in all cases: ≥ marks a high value that may be exact or a test limit, other limits are often not marked, values filed in µg/mL are converted to µM
[1] = test system: Aureobasidium pullulans
[2] = test system: Candida albicans ATCC 10231
[3] = test system: Corynebacterium glutamicum ATCC 13032
[4] = test system: Escherichia coli ATCC 25922
[5] = test system: Pseudomonas aeruginosa ATCC 27853
[6] = test system: Staphylococcus aureus ATCC 9144
[7] = test system: Candida albicans ATCC 36232
[8] = test system: Escherichia coli ATCC 2592
[9] = test system: Micrococcus luteus ATCC 9341
[10] = test system: Pseudomonas aeruginosa ATCC 9027
[11] = test system: Staphylococcus aureus ATCC 6538
[12] = test system: Pseudomonas aeruginosa 253
[13] = test system: Pseudomonas aeruginosa 910
[14] = test system: Pseudomonas aeruginosa 919
[15] = test system: Pseudomonas aeruginosa PAO1
[16] = test system: Escherichia coli UB1005
[17] = test system: Salmonella enterica subsp. enterica serovar Pullorum C79-13
[18] = test system: Salmonella enterica subsp. enterica serovar Typhi CMCC 50071
[19] = test system: Salmonella enterica subsp. enterica serovar Typhimurium ATCC 14028
[20] = test system: Salmonella enterica subsp. enterica serovar Typhimurium C77-31
[21] = test system: Staphylococcus aureus ATCC 25923
[22] = test system: Staphylococcus aureus ATCC 29213
[23] = test system: Staphylococcus epidermidis ATCC 12228
[24] = test system: Bacillus cereus
[25] = test system: Enterobacter cloacae
[26] = test system: Enterococcus faecalis
[27] = test system: Escherichia coli
[28] = test system: Leuconostoc lactis
[29] = test system: Listeria innocua
[30] = test system: Micrococcus luteus
[31] = test system: Pasteurella multocida
[32] = test system: Pseudomonas aeruginosa
[33] = test system: Staphylococcus epidermidis
[34] = test system: Streptococcus uberis
[35] = test system: Escherichia coli BL21
[36] = test system: Staphylococcus aureus ATCC 6538P
[37] = test system: Staphylococcus aureus ATCC BAA-41
[38] = test system: Candida albicans
[39] = test system: Enterococcus faecalis ATCC 29212
[40] = test system: Pseudomonas aeruginosa H103
[41] = test system: Salmonella enterica serovar Typhimurium
[42] = test system: Listeria monocytogenes
[43] = test system: Pseudomonas aeruginosa K799
[44] = test system: Salmonella enterica subsp. enterica serovar Typhimurium ATCC 14028s

MIC [1]: 25 µM (≈ 37.8 µg/mL) | MIC [2]: 25 µM (≈ 37.8 µg/mL) | MIC [3]: 1.6 µM (≈ 2.42 µg/mL) | MIC [4]: 3.1 µM (≈ 4.69 µg/mL) | MIC [5]: 3.1 µM (≈ 4.69 µg/mL) | MIC [6]: 12.5 µM (≈ 18.9 µg/mL)
SMILES: CC(C)[C@H](NC(=O)[C@H](C)NC(=O)[C@H](CCCN=C(N)N)NC(=O)[C@H](CCCN=C(N)N)NC(=O)[C@H](Cc1c[nH]c2ccccc12)NC(=O)[C@H](Cc1c[nH]c2ccccc12)NC(=O)CN)C(=O)N[C@@H](C)C(=O)N[C@@H](CCCCN)C(=O)N[C@H](C(=O)N[C@@H](CCCN=C(N)N)C(=O)N[C@@H](CCCCN)C(N)=O)C(C)C [GWWRRAVAKVRK]

MIC [35]: 1.41 µM (≈ 2.57 µg/mL) | MIC [15]: 1.41 µM (≈ 2.57 µg/mL) | MIC [36]: 16 µM (≈ 29 µg/mL) | MIC [37]: 16 µM (≈ 29 µg/mL) | MIC [33]: 0.5 µM (≈ 0.908 µg/mL)
SMILES: CC[C@H](C)[C@H](NC(=O)[C@H](CCCCN)NC(=O)[C@H](CCCCN)NC(=O)[C@H](Cc1ccccc1)NC(=O)[C@H](CCCCN)NC(=O)[C@H](CCCCN)NC(=O)[C@H](Cc1c[nH]c2ccccc12)NC(=O)[C@@H](N)CCCCN)C(=O)NCC(=O)N[C@@H](C)C(=O)N[C@H](C(=O)N[C@@H](CC(C)C)C(=O)N[C@@H](CCCCN)C(=O)N[C@@H](CCCCN)C(=O)N[C@@H](CC(C)C)C(=O)O)C(C)C [KWKKFKKIGAVLKKL]

MIC [38]: 5.3 µM (≈ 7.99 µg/mL) | MIC [39]: 2.65 µM (≈ 4 µg/mL) | MIC [16]: 2.65 µM (≈ 4 µg/mL) | MIC [12]: 16 µM (≈ 24.1 µg/mL) | MIC [13]: 16 µM (≈ 24.1 µg/mL) | MIC [14]: 16 µM (≈ 24.1 µg/mL) | MIC [40]: 10.6 µM (≈ 16 µg/mL) | MIC [15]: 16 µM (≈ 24.1 µg/mL) | MIC [41]: 5.3 µM (≈ 7.99 µg/mL) | MIC [21]: 5.3 µM (≈ 7.99 µg/mL) | MIC [33]: 1.33 µM (≈ 2 µg/mL)
SMILES: CC[C@H](C)[C@H](NC(=O)[C@H](CCCN=C(N)N)NC(=O)[C@H](C)NC(=O)[C@H](CC(C)C)NC(=O)[C@@H](N)CCCN=C(N)N)C(=O)N[C@H](C(=O)N[C@H](C(=O)N[C@H](C(=O)N[C@@H](CCCN=C(N)N)C(=O)N[C@@H](Cc1c[nH]c2ccccc12)C(=O)N[C@@H](C)C(=O)N[C@@H](CCCN=C(N)N)C(N)=O)[C@@H](C)CC)C(C)C)C(C)C [RLARIVVIRWAR]

MIC [39]: 2.75 µM (≈ 4 µg/mL) | MIC [16]: 1.38 µM (≈ 2 µg/mL) | MIC [42]: 0.172 µM (≈ 0.25 µg/mL) | MIC [43]: 11 µM (≈ 16 µg/mL) | MIC [44]: 22 µM (≈ 32 µg/mL) | MIC [21]: 2.75 µM (≈ 4 µg/mL) | MIC [33]: 0.688 µM (≈ 0.999 µg/mL)
SMILES: CC[C@H](C)[C@H](NC(=O)[C@H](CCCN=C(N)N)NC(=O)[C@H](CO)NC(=O)[C@H](CC(C)C)NC(=O)[C@@H](N)CCCN=C(N)N)C(=O)N[C@H](C(=O)N[C@H](C(=O)N[C@H](C(=O)N[C@@H](CCCN=C(N)N)C(=O)N[C@H](C(=O)N[C@@H](CO)C(=O)N[C@@H](CCCN=C(N)N)C(N)=O)C(C)C)[C@@H](C)CC)C(C)C)C(C)C [RLSRIVVIRVSR]

Continued, compound first:

SMILES: CC(C)[C@H](NC(=O)[C@H](CCCCN)NC(=O)[C@H](C)NC(=O)[C@@H](NC(=O)[C@@H](NC(=O)[C@H](CCCN=C(N)N)NC(=O)[C@H](CCCN=C(N)N)NC(=O)[C@H](Cc1c[nH]c2ccccc12)NC(=O)[C@H](Cc1c[nH]c2ccccc12)NC(=O)[C@H](C)N)[C@@H](C)O)C(C)C)C(=O)N[C@@H](CCCN=C(N)N)C(=O)N[C@@H](CCCCN)C(N)=O [AWWRRTVAKVRK]
MIC [1]: ≥ 50 µM | MIC [2]: 25 µM (≈ 38.9 µg/mL) | MIC [3]: 0.8 µM (≈ 1.24 µg/mL) | MIC [4]: 12.5 µM (≈ 19.4 µg/mL) | MIC [5]: 6.3 µM (≈ 9.8 µg/mL) | MIC [6]: 25 µM (≈ 38.9 µg/mL)

SMILES: CC(C)C[C@H](NC(=O)[C@H](CS)NC(=O)[C@H](Cc1cnc[nH]1)NC(=O)[C@H](C)NC(=O)[C@H](C)NC(=O)[C@H](CS)NC(=O)[C@H](C)NC(=O)[C@H](C)NC(=O)[C@@H](N)CC(=O)O)C(=O)N[C@@H](Cc1c[nH]c2ccccc12)C(=O)N[C@@H](CCCN=C(N)N)C(N)=O [DAACAAHCLWR]
MIC [7]: ≥ 164 µM | MIC [8]: ≥ 164 µM | MIC [9]: ≥ 164 µM | MIC [10]: > 164 µM | MIC [11]: > 164 µM

SMILES: CC[C@H](C)[C@H](NC(=O)[C@@H](N)Cc1ccccc1)C(=O)N[C@@H](CCCCN)C(=O)N[C@@H](Cc1c[nH]c2ccccc12)C(=O)N[C@@H](CCCN=C(N)N)C(=O)N[C@@H](Cc1ccccc1)C(=O)N[C@@H](CCCN=C(N)N)C(=O)N[C@@H](CCCN=C(N)N)C(=O)N[C@@H](Cc1c[nH]c2ccccc12)C(=O)N[C@@H](CCCCN)C(=O)N[C@@H](CCCCN)C(=O)N[C@@H](CCCN=C(N)N)C(=O)N[C@@H](CCCCN)C(N)=O [FIKWRFRRWKKRK]
MIC [12]: 8 µM (≈ 15.5 µg/mL) | MIC [13]: 5.66 µM (≈ 10.9 µg/mL) | MIC [14]: 22.6 µM (≈ 43.8 µg/mL) | MIC [15]: 4 µM (≈ 7.74 µg/mL)

SMILES: NC(=O)CC[C@H](NC(=O)[C@H](Cc1c[nH]c2ccccc12)NC(=O)[C@H](CCCN=C(N)N)NC(=O)[C@H](CCCN=C(N)N)NC(=O)[C@H](Cc1c[nH]c2ccccc12)NC(=O)[C@@H](N)Cc1ccccc1)C(=O)N[C@@H](Cc1c[nH]c2ccccc12)C(=O)N[C@@H](CCCN=C(N)N)C(=O)N[C@@H](CCCN=C(N)N)C(=O)N[C@@H](CCCN=C(N)N)C(=O)N[C@@H](Cc1c[nH]c2ccccc12)C(=O)N[C@@H](Cc1ccccc1)C(N)=O [FWRRWQWRRRWF]
MIC [16]: 16 µM (≈ 31.4 µg/mL) | MIC [17]: 8 µM (≈ 15.7 µg/mL) | MIC [18]: ≥ 128 µM | MIC [19]: 128 µM (≈ 252 µg/mL) | MIC [20]: 16 µM (≈ 31.4 µg/mL) | MIC [21]: 16 µM (≈ 31.4 µg/mL) | MIC [22]: > 128 µM | MIC [23]: 8 µM (≈ 15.7 µg/mL)

SMILES: CC[C@H](C)[C@H](NC(=O)CNC(=O)[C@H](CO)NC(=O)[C@@H](NC(=O)[C@H](CC(C)C)NC(=O)[C@H](CCC(=O)O)NC(=O)[C@H](CC(N)=O)NC(=O)[C@H](C)NC(=O)[C@H](CCCCN)NC(=O)[C@H](CCC(=O)O)NC(=O)[C@H](CCCCN)NC(=O)[C@@H](NC(=O)[C@H](CCCCN)NC(=O)[C@H](CCC(=O)O)NC(=O)[C@H](Cc1c[nH]c2ccccc12)NC(=O)[C@H](CC(C)C)NC(=O)CN)C(C)C)C(C)C)C(=O)N[C@H](C(=O)N[C@@H](CCC(=O)O)C(=O)NCC(=O)N[C@H](C(=O)N[C@@H](CCCCN)C(N)=O)C(C)C)C(C)C [GLWEKVKEKANELVSGIVEGVK]
MIC [24]: ≥ 41.4 µM | MIC [25]: ≥ 41.4 µM | MIC [26]: ≥ 41.4 µM | MIC [27]: > 41.4 µM | MIC [28]: ≥ 41.4 µM | MIC [29]: ≥ 41.4 µM | MIC [30]: ≥ 41.4 µM | MIC [31]: ≥ 41.4 µM | MIC [32]: > 41.4 µM | MIC [21]: > 41.4 µM | MIC [22]: > 41.4 µM | MIC [33]: ≥ 41.4 µM | MIC [34]: ≥ 41.4 µM
